Key:
Test in all cases: relative viability (nuclei count vs DMSO), 5 days (fraction); higher = more cells survive
ABC-1 = tested on: ABC-1
In short: (§1)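 Five library-drug doses in √10 steps were combined with a fixed anchor-drug dose, or a single drug was given alone, by pin tool to lung cancer cell lines in 1536-well plates the day after seeding. Nuclei were stained and counted after 5 days. Relative viability is the nuclei count in treated wells over that in vehicle wells, taken as the median of duplicate plates.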

CAL-12T = tested on: CAL-12T
In short: as §1

ChaGo-K-1 = tested on: ChaGo-K-1
In short: as §1

HCC-366 = tested on: HCC-366
In short: as §1

HCC-78 = tested on: HCC-78
In short: as §1

LC-2-ad = tested on: LC-2-ad
In short: as §1

LOU-NH91 = tested on: LOU-NH91
In short: as §1

LU99A = tested on: LU99A
In short: as §1

NCI-H1395 = tested on: NCI-H1395
In short: as §1

NCI-H1651 = tested on: NCI-H1651
In short: as §1

NCI-H1734 = tested on: NCI-H1734
In short: as §1

NCI-H1755 = tested on: NCI-H1755
In short: as §1

In the case of `NC(=O)Nc1cc(-c2cccc(F)c2)sc1C(=O)N[C@H]1CCCNC1` [AZD7762] + Cc1nc(Nc2ncc(C(=O)Nc3c(C)cccc3Cl)s2)cc(N2CCN(CCO)CC2)n1 [Dasatinib] (partner 0.075 µM), the relative viability (ABC-1; first compound 0.01 µM) is reported as 0.618, the relative viability (ABC-1; first compound 0.03162 µM) is reported as 0.586 and the relative viability (ABC-1; first compound 0.1 µM) is reported as 0.473. It also gave a relative viability (ABC-1; first compound 0.3162 µM) of 0.413, a relative viability (ABC-1; first compound 1 µM) of 0.273 and a relative viability (CAL-12T; first compound 0.01 µM) of 0.637. The relative viability (CAL-12T; first compound 0.03162 µM) was 0.463, the relative viability (CAL-12T; first compound 0.1 µM) was 0.47 and the relative viability (CAL-12T; first compound 0.3162 µM) was 0.23. It also gave a relative viability (CAL-12T; first compound 1 µM) of 0.0827, a relative viability (ChaGo-K-1; first compound 0.01 µM) of 0.572 and a relative viability (ChaGo-K-1; first compound 0.03162 µM) of 0.575. It also gave a relative viability (ChaGo-K-1; first compound 0.1 µM) of 0.583, a relative viability (ChaGo-K-1; first compound 0.3162 µM) of 0.487 and a relative viability (ChaGo-K-1; first compound 1 µM) of 0.583. For the same compound, the relative viability (HCC-366; first compound 0.01 µM) was 0.707, the relative viability (HCC-366; first compound 0.03162 µM) was 0.625 and the relative viability (HCC-366; first compound 0.1 µM) was 0.659. For the same compound, the relative viability (HCC-366; first compound 0.3162 µM) was 0.421, the relative viability (HCC-366; first compound 1 µM) was 0.177 and the relative viability (HCC-78; first compound 0.01 µM) was 0.409. It also gave a relative viability (HCC-78; first compound 0.03162 µM) of 0.606, a relative viability (HCC-78; first compound 0.1 µM) of 0.451 and a relative viability (HCC-78; first compound 0.3162 µM) of 0.353. The relative viability (HCC-78; first compound 1 µM) was 0.232, the relative viability (LC-2-ad; first compound 0.01 µM) was 0.596 and the relative viability (LC-2-ad; first compound 0.03162 µM) was 0.513. For the same compound, the relative viability (LC-2-ad; first compound 0.1 µM) was 0.374, the relative viability (LC-2-ad; first compound 0.3162 µM) was 0.343 and the relative viability (LC-2-ad; first compound 1 µM) was 0.377. For the same compound, the relative viability (LOU-NH91; first compound 0.01 µM) was 0.561, the relative viability (LOU-NH91; first compound 0.03162 µM) was 0.596 and the relative viability (LOU-NH91; first compound 0.1 µM) was 0.558. It also gave a relative viability (LOU-NH91; first compound 0.3162 µM) of 0.517, a relative viability (LOU-NH91; first compound 1 µM) of 0.49 and a relative viability (LU99A; first compound 0.01 µM) of 0.551. The relative viability (LU99A; first compound 0.03162 µM) was 0.573, the relative viability (LU99A; first compound 0.1 µM) was 0.51 and the relative viability (LU99A; first compound 0.3162 µM) was 0.419. The relative viability (LU99A; first compound 1 µM) was 0.202, the relative viability (NCI-H1395; first compound 0.01 µM) was 0.449 and the relative viability (NCI-H1395; first compound 0.03162 µM) was 0.424. For the same compound, the relative viability (NCI-H1395; first compound 0.1 µM) was 0.427, the relative viability (NCI-H1395; first compound 0.3162 µM) was 0.371 and the relative viability (NCI-H1395; first compound 1 µM) was 0.302. It also gave a relative viability (NCI-H1651; first compound 0.01 µM) of 0.375, a relative viability (NCI-H1651; first compound 0.03162 µM) of 0.358 and a relative viability (NCI-H1651; first compound 0.1 µM) of 0.386. It also gave a relative viability (NCI-H1651; first compound 0.3162 µM) of 0.22, a relative viability (NCI-H1651; first compound 1 µM) of 0.174 and a relative viability (NCI-H1734; first compound 0.01 µM) of 0.537. It also gave a relative viability (NCI-H1734; first compound 0.03162 µM) of 0.542, a relative viability (NCI-H1734; first compound 0.1 µM) of 0.493 and a relative viability (NCI-H1734; first compound 0.3162 µM) of 0.394. It also gave a relative viability (NCI-H1734; first compound 1 µM) of 0.35, a relative viability (NCI-H1755; first compound 0.01 µM) of 0.276 and a relative viability (NCI-H1755; first compound 0.03162 µM) of 0.428.

Source: the supplement of paper PMC10307832
